Assay results taken from ChEMBL document CHEMBL4043212, “Design, synthesis and biological evaluation of 1,3-diphenylbenzo[f][1,7]naphthyrdines” (2017).

Key:
PC-3 = test: Cytotoxicity against human PC3 cells assessed as inhibition of cell growth incubated for 72 hrs by SRB assay; type: functional
MDA-MB-231 = test: Cytotoxicity against human MDA-MB-231 cells assessed as inhibition of cell growth incubated for 72 hrs by SRB assay; type: functional
NUGC-3 = test: Cytotoxicity against human NUGC3 cells assessed as inhibition of cell growth incubated for 72 hrs by SRB assay; type: functional
ACHN = test: Cytotoxicity against human ACHN cells assessed as inhibition of cell growth incubated for 72 hrs by SRB assay; type: functional
NCI-H23 = test: Cytotoxicity against human NCI-H23 cells assessed as inhibition of cell growth incubated for 72 hrs by SRB assay; type: functional
HCT-15 = test: Cytotoxicity against human HCT15 cells assessed as inhibition of cell growth incubated for 72 hrs by SRB assay; type: functional
[1] = target: DNA topoisomerase 2-alpha (Homo sapiens) (UniProt P11388); test: Inhibition of human topoisomerase-2 alpha assessed as reduction in conversion of super coiled plasmid DNA to relaxed DNA at 100 uM using supercoiled pBR322 DNA as substrate after 30 mins by ethidium bromide staining based agarose gel electrophoresis method relative to control
DNA topoisomerase 2-alpha (Homo sapiens), sequence (P11388 whole entry): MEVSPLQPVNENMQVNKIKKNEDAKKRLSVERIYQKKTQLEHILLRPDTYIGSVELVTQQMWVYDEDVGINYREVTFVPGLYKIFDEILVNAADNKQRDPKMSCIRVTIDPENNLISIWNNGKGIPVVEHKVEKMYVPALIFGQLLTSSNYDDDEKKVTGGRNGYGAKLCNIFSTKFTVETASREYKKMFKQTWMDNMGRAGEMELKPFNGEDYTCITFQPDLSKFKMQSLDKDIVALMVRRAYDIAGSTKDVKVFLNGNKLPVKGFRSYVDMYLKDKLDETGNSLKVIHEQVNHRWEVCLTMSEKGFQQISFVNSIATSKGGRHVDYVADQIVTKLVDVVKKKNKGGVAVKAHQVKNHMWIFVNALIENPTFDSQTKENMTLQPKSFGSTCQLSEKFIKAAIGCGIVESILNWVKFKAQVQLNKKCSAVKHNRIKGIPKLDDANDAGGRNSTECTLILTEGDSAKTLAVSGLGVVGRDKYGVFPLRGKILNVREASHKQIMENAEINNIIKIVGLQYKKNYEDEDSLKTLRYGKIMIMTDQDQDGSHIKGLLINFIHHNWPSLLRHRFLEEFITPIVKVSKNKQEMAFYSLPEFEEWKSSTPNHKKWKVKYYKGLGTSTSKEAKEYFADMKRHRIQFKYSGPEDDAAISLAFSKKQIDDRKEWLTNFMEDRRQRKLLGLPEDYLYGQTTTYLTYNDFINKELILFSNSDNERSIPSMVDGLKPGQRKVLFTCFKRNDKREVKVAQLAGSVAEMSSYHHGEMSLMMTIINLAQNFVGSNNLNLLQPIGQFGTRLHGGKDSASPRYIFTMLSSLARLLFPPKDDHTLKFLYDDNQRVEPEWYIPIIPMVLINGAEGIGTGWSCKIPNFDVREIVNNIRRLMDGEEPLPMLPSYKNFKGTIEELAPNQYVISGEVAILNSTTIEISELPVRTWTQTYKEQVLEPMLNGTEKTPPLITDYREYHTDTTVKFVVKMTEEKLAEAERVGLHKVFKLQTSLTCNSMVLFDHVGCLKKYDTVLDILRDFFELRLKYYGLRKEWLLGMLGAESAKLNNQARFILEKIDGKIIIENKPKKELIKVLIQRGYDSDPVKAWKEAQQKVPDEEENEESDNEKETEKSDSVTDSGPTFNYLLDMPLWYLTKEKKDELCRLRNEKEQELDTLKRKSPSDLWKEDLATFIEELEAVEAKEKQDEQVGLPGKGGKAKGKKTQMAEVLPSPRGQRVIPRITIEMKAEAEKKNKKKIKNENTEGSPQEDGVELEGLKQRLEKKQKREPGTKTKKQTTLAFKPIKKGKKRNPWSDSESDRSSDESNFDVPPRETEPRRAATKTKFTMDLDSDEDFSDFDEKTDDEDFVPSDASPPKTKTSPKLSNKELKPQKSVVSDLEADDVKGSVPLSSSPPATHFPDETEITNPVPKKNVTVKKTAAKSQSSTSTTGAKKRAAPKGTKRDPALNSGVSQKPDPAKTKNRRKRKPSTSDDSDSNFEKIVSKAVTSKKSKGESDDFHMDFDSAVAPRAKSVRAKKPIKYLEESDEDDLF

| SMILES | GI50 (PC-3; Homo sapiens, PC-3, 72 h) [µM] | GI50 (MDA-MB-231; Homo sapiens, MDA-MB-231, 72 h) [µM] | GI50 (NUGC-3; Homo sapiens, NUGC-3, 72 h) [µM] | GI50 (ACHN; Homo sapiens, ACHN, 72 h) [µM] | GI50 (NCI-H23; Homo sapiens, NCI-H23, 72 h) [µM] | GI50 (HCT-15; Homo sapiens, HCT-15, 72 h) [µM] | GI50 (PC-3) [µM] | GI50 (MDA-MB-231) [µM] | GI50 (NUGC-3) [µM] | GI50 (ACHN) [µM] | GI50 (NCI-H23) [µM] | GI50 (HCT-15) [µM] | inhibition [1] [%] |
| --- | --- | --- | --- | --- | --- | --- | --- | --- | --- | --- | --- | --- | --- |
| COc1ccc(-c2cc(-c3ccccc3Cl)nc3cnc4ccccc4c23)cc1 | 4.46 | 3.32 | 3 | 3.27 | 2.55 | 2.15 | – | – | – | – | – | – | – |
| COc1ccc(-c2cc(-c3ccc(C(F)(F)F)cc3)nc3cnc4ccccc4c23)cc1 | > 10 | > 10 | > 10 | > 10 | > 10 | > 10 | – | – | – | – | – | – | – |
| COc1ccc(-c2cc(-c3ccc([N+](=O)[O-])cc3)nc3cnc4ccccc4c23)cc1 | – | – | – | – | – | – | 3.59 | 3.49 | 2.87 | 3.92 | 2.43 | 4.37 | – |
| COc1ccc(-c2cc(-c3ccc(Cl)cc3)nc3cnc4ccccc4c23)cc1 | 1.53 | 2.94 | 2.17 | 1.69 | 1.7 | 4.82 | – | – | – | – | – | – | 3 |
| COc1cccc2c1C(=O)c1c(O)c3c(c(O)c1C2=O)C[C@@](O)(C(=O)CO)C[C@@H]3O[C@H]1C[C@H](N)[C@H](O)[C@H](C)O1 [DOXORUBICIN] | 0.076 | 0.068 | 0.086 | 0.08 | 0.09 | 0.077 | – | – | – | – | – | – | – |
| COc1ccc(-c2cc(-c3cccc(C#N)c3)nc3cnc4ccccc4c23)cc1 | 3.15 | 1.79 | 2.03 | 3.86 | 1.89 | 1.79 | – | – | – | – | – | – | 0.2 |
| COc1ccc(-c2cc(-c3ccccc3Br)nc3cnc4ccccc4c23)cc1 | > 10 | > 10 | > 10 | > 10 | > 10 | > 10 | – | – | – | – | – | – | – |
| COc1ccc(-c2cc(-c3ccc(OC)c4ccccc34)nc3cnc4ccccc4c23)cc1 | > 10 | > 10 | > 10 | > 10 | > 10 | > 10 | – | – | – | – | – | – | – |
| COc1ccc(-c2cc(-c3ccccc3[N+](=O)[O-])nc3cnc4ccccc4c23)cc1 | > 10 | > 10 | > 10 | > 10 | > 10 | > 10 | – | – | – | – | – | – | – |
| COc1ccc(-c2cc(-c3cccc4ccccc34)nc3cnc4ccccc4c23)cc1 | – | 2.81 | 2.16 | – | 1.65 | 2.72 | 3.38 | – | – | 5.36 | – | – | – |
| CCn1cc(-c2cc(-c3ccc(OC)cc3)c3c(cnc4ccccc43)n2)c2ccccc21 | 6.15 | 3.04 | 3.03 | 5.61 | 2.07 | 4.88 | – | – | – | – | – | – | – |
